Source: the NIST ThermoML archive (doi:10.1021/je900124n)
“And” between values parts separate entries of the source, which are not always exact repeats. Identical values can stand only once. ± gives the expanded uncertainty stated by the source.

Conditions: Fluid (supercritical or subcritical phases), Buoyancy - hydrostatic balance with magnetic suspension - two sinkers

CCC [propane]
Conditions	mass density
315 K, 774.95 kPa	14.7169 ± 0.0042 kg/m3 and 14.7168 ± 0.0042 kg/m3
315 K, 774.96 kPa	14.7169 ± 0.0042 kg/m3 and 14.7168 ± 0.0042 kg/m3
315 K, 1306.4 kPa	27.9201 ± 0.0071 kg/m3 and 27.9221 ± 0.0071 kg/m3
315 K, 1306.5 kPa	27.9244 ± 0.0072 kg/m3
315 K, 1306.6 kPa	27.927 ± 0.0071 kg/m3 and 27.926 ± 0.0071 kg/m3
320 K, 270.24 kPa	4.64 ± 0.0029 kg/m3 and 4.6399 ± 0.0029 kg/m3 and 4.6398 ± 0.0029 kg/m3
320 K, 476.69 kPa	8.4338 ± 0.0034 kg/m3 and 8.4339 ± 0.0034 kg/m3
320 K, 789.41 kPa	14.6898 ± 0.0041 kg/m3
320 K, 789.42 kPa	14.69 ± 0.0041 kg/m3
320 K, 789.43 kPa	14.6907 ± 0.0041 kg/m3 and 14.6901 ± 0.0041 kg/m3
320 K, 1333.7 kPa	27.726 ± 0.53 kg/m3
320 K, 1333.9 kPa	27.7763 ± 0.53 kg/m3
320 K, 1334.3 kPa	27.7883 ± 0.53 kg/m3
320 K, 1334.6 kPa	27.742 ± 0.53 kg/m3
320 K, 1335 kPa	27.8035 ± 0.53 kg/m3
320 K, 2017.4 kPa	457.1 ± 0.15 kg/m3
320 K, 2018.5 kPa	457.104 ± 0.15 kg/m3
320 K, 2018.7 kPa	457.105 ± 0.15 kg/m3
320 K, 2018.8 kPa	457.104 ± 0.15 kg/m3
320 K, 2019.1 kPa	457.105 ± 0.15 kg/m3
320 K, 2019.3 kPa	457.11 ± 0.15 kg/m3
320 K, 2019.4 kPa	457.108 ± 0.15 kg/m3
320 K, 2019.5 kPa	457.11 ± 0.15 kg/m3
320 K, 2019.8 kPa	457.109 ± 0.15 kg/m3 and 457.107 ± 0.15 kg/m3 and 457.108 ± 0.15 kg/m3
320 K, 2019.9 kPa	457.109 ± 0.15 kg/m3
320 K, 4080.8 kPa	466.418 ± 0.057 kg/m3
320 K, 4080.9 kPa	466.42 ± 0.057 kg/m3
320 K, 4081 kPa	466.419 ± 0.057 kg/m3
320 K, 4081.3 kPa	466.42 ± 0.057 kg/m3
320 K, 4081.6 kPa	466.42 ± 0.057 kg/m3
320 K, 8257.8 kPa	481.065 ± 0.058 kg/m3
320 K, 8258.1 kPa	481.068 ± 0.058 kg/m3
320 K, 8258.4 kPa	481.067 ± 0.058 kg/m3 and 481.068 ± 0.058 kg/m3
320 K, 10347 kPa	487.109 ± 0.059 kg/m3 and 487.106 ± 0.059 kg/m3 and 487.107 ± 0.059 kg/m3
320 K, 10348 kPa	487.113 ± 0.059 kg/m3 and 487.107 ± 0.059 kg/m3
320 K, 10349 kPa	487.112 ± 0.059 kg/m3
320 K, 12003 kPa	491.44 ± 0.06 kg/m3
320 K, 12004 kPa	491.44 ± 0.06 kg/m3 and 491.441 ± 0.06 kg/m3
320 K, 16094 kPa	500.965 ± 0.061 kg/m3
320 K, 16095 kPa	500.967 ± 0.061 kg/m3
320 K, 16096 kPa	500.967 ± 0.061 kg/m3
320 K, 20063 kPa	508.971 ± 0.062 kg/m3 and 508.967 ± 0.062 kg/m3 and 508.969 ± 0.062 kg/m3
320 K, 20064 kPa	508.969 ± 0.062 kg/m3 and 508.971 ± 0.062 kg/m3
320 K, 24069 kPa	516.143 ± 0.062 kg/m3
320 K, 24072 kPa	516.146 ± 0.062 kg/m3 and 516.148 ± 0.062 kg/m3 and 516.147 ± 0.062 kg/m3
320 K, 29981 kPa	525.489 ± 0.064 kg/m3
320 K, 29983 kPa	525.494 ± 0.064 kg/m3
320 K, 29985 kPa	525.495 ± 0.064 kg/m3
320 K, 29986 kPa	525.497 ± 0.064 kg/m3
320 K, 35299 kPa	532.943 ± 0.064 kg/m3
320 K, 35300 kPa	532.945 ± 0.064 kg/m3 and 532.943 ± 0.064 kg/m3
320 K, 35301 kPa	532.945 ± 0.064 kg/m3
325 K, 803.73 kPa	14.6629 ± 0.0041 kg/m3 and 14.6627 ± 0.0041 kg/m3 and 14.6626 ± 0.0041 kg/m3
325 K, 803.74 kPa	14.6631 ± 0.0041 kg/m3 and 14.6629 ± 0.0041 kg/m3
325 K, 1340.6 kPa	27.0793 ± 0.032 kg/m3
325 K, 1340.9 kPa	27.1015 ± 0.032 kg/m3
325 K, 1341.2 kPa	27.0724 ± 0.032 kg/m3
325 K, 1341.8 kPa	27.0948 ± 0.032 kg/m3
330 K, 278.72 kPa	4.6293 ± 0.0029 kg/m3 [middle of 4 runs]
330 K, 492.57 kPa	8.4128 ± 0.0033 kg/m3 and 8.4127 ± 0.0033 kg/m3
330 K, 492.58 kPa	8.4128 ± 0.0033 kg/m3 and 8.4127 ± 0.0033 kg/m3
330 K, 817.85 kPa	14.6343 ± 0.0041 kg/m3
330 K, 817.86 kPa	14.6347 ± 0.0041 kg/m3 and 14.6346 ± 0.0041 kg/m3 and 14.6343 ± 0.0041 kg/m3
330 K, 817.87 kPa	14.6348 ± 0.0041 kg/m3
330 K, 1346.8 kPa	26.4281 ± 0.034 kg/m3
330 K, 1347 kPa	26.4322 ± 0.034 kg/m3
330 K, 1347.2 kPa	26.4396 ± 0.034 kg/m3
330 K, 1347.3 kPa	26.4407 ± 0.034 kg/m3 and 26.4409 ± 0.034 kg/m3
330 K, 1714.5 kPa	36.5728 ± 0.039 kg/m3 [middle of 5 runs]
335 K, 1765.2 kPa	36.7322 ± 0.25 kg/m3 and 36.7333 ± 0.25 kg/m3 and 36.7309 ± 0.25 kg/m3
335 K, 1765.3 kPa	36.7327 ± 0.25 kg/m3 and 36.733 ± 0.25 kg/m3
340 K, 287.12 kPa	4.6188 ± 0.0029 kg/m3 and 4.6185 ± 0.0029 kg/m3
340 K, 287.13 kPa	4.6186 ± 0.0029 kg/m3
340 K, 508.31 kPa	8.392 ± 0.0033 kg/m3 and 8.3919 ± 0.0033 kg/m3
340 K, 508.32 kPa	8.3921 ± 0.0033 kg/m3
340 K, 508.33 kPa	8.3921 ± 0.0033 kg/m3
340 K, 846.05 kPa	14.5839 ± 0.0041 kg/m3
340 K, 846.06 kPa	14.584 ± 0.0041 kg/m3 and 14.5839 ± 0.0041 kg/m3
340 K, 846.07 kPa	14.5839 ± 0.0041 kg/m3
340 K, 1352.2 kPa	25.1571 ± 0.032 kg/m3
340 K, 1352.4 kPa	25.1613 ± 0.032 kg/m3 and 25.1637 ± 0.032 kg/m3
340 K, 1352.5 kPa	25.161 ± 0.032 kg/m3
340 K, 1352.7 kPa	25.168 ± 0.032 kg/m3
340 K, 1816.9 kPa	36.9173 ± 0.043 kg/m3
340 K, 1817.1 kPa	36.9239 ± 0.043 kg/m3 and 36.9243 ± 0.043 kg/m3
340 K, 2355.2 kPa	55.4656 ± 0.27 kg/m3
340 K, 2355.4 kPa	55.4825 ± 0.27 kg/m3 and 55.4906 ± 0.27 kg/m3
340 K, 2355.5 kPa	55.5083 ± 0.27 kg/m3
340 K, 2355.8 kPa	55.4793 ± 0.27 kg/m3
340 K, 3925.4 kPa	425.071 ± 0.072 kg/m3 and 425.069 ± 0.072 kg/m3
340 K, 3925.5 kPa	425.072 ± 0.072 kg/m3
340 K, 3925.6 kPa	425.073 ± 0.072 kg/m3 and 425.071 ± 0.072 kg/m3 and 425.072 ± 0.072 kg/m3
340 K, 3925.7 kPa	425.072 ± 0.072 kg/m3 and 425.071 ± 0.072 kg/m3
340 K, 3925.8 kPa	425.071 ± 0.072 kg/m3 and 425.072 ± 0.072 kg/m3
340 K, 8053.4 kPa	448.649 ± 0.055 kg/m3
340 K, 8053.5 kPa	448.65 ± 0.055 kg/m3
340 K, 8053.6 kPa	448.651 ± 0.055 kg/m3
340 K, 8053.8 kPa	448.649 ± 0.055 kg/m3
340 K, 8054.1 kPa	448.649 ± 0.055 kg/m3
340 K, 12040 kPa	464.072 ± 0.057 kg/m3 and 464.071 ± 0.057 kg/m3
340 K, 12041 kPa	464.071 ± 0.057 kg/m3
340 K, 16069 kPa	476.246 ± 0.058 kg/m3 and 476.247 ± 0.058 kg/m3 and 476.248 ± 0.058 kg/m3
340 K, 16070 kPa	476.248 ± 0.058 kg/m3
340 K, 19781 kPa	485.636 ± 0.059 kg/m3
340 K, 19783 kPa	485.642 ± 0.059 kg/m3 and 485.644 ± 0.059 kg/m3
340 K, 19784 kPa	485.647 ± 0.059 kg/m3 [middle of 4 runs]
340 K, 19785 kPa	485.649 ± 0.059 kg/m3
340 K, 19943 kPa	485.999 ± 0.059 kg/m3
340 K, 19946 kPa	486.007 ± 0.059 kg/m3 and 486.009 ± 0.059 kg/m3 and 486.006 ± 0.059 kg/m3
340 K, 19947 kPa	486.007 ± 0.059 kg/m3
340 K, 23981 kPa	494.781 ± 0.06 kg/m3 and 494.78 ± 0.06 kg/m3
340 K, 23982 kPa	494.781 ± 0.06 kg/m3
340 K, 29812 kPa	505.708 ± 0.061 kg/m3
340 K, 29815 kPa	505.714 ± 0.061 kg/m3
340 K, 29816 kPa	505.715 ± 0.061 kg/m3 and 505.712 ± 0.061 kg/m3
340 K, 29817 kPa	505.713 ± 0.061 kg/m3
